Data published in patent US20260070945A1, “MACROCYCLIC IMMUNOMODULATORS” (Bristol-Myers Squibb Company, priority 2022, published 2026).
*1 amine or outer side, *2 acyl side, *3 side chain or, on linkers, in order; H or OH if unused. Where a SMILES comes first, the peptide text is derived from it. Bridges are numbered along the chain shown (N, C = ends). [ ]: non-standard residue; d: D form. The star is where a group is joined. ξ: configuration not given here. Phe(3-CF3) = N[C@@H](Cc1cccc(C(F)(F)F)c1)C(=O)O; Phe(4-COOH) = N[C@@H](Cc1ccc(C(=O)O)cc1)C(=O)O; Bip = N[C@@H](Cc1ccc(-c2ccccc2)cc1)C(=O)O; NH(CH2)14COOH = O=C(O)CCCCCCCCCCCCCCN*; Phe(3-Me) = Cc1cccc(C[C@H](N)C(=O)O)c1; γGlu = O=C(O)[C@H](CCC(=O)[*:2])N[*:1]; Abu(3S-NH2) = C[C@H](N)[C@H](N)C(=O)O; NH(CH2)12COOH = O=C(O)CCCCCCCCCCCCN*; Val(3-OH) = CC(C)(O)[C@H](N)C(=O)O; hArg = N=C(N)NCCCC[C@H](N)C(=O)O; 4Pal = N[C@@H](Cc1ccncc1)C(=O)O; Cha = N[C@@H](CC1CCCCC1)C(=O)O; Cit = NC(=O)NCCC[C@H](N)C(=O)O; Thr(3ξ) = CC(O)[C@H](N)C(=O)O; 12Ado = NCCCCCCCCCCCC(=O)O; Carboxymethyl = O=C(O)C*; NMeA = CN[C@@H](C)C(=O)O; Orn = NCCC[C@H](N)C(=O)O; Aun = NCCCCCCCCCCC(=O)O; Dab = NCC[C@H](N)C(=O)O; Dap = NC[C@H](N)C(=O)O; AEEA = NCCOCCOCC(=O)O; Sar = CNCC(=O)O

biological target: T1, PD-1/PD-L1 interaction (PE-labeled human PD-L1-Ig binding to Jurkat cell line over-expressing human PD-1) (Homo sapiens, UniProt Q15116); assay: Jurkat-PD-1 Cell Binding High-Content Screening Assay (CBA); details: Jurkat-hPD-1 cells, PE-labeled PD-L1-Ig 20 nM final; read-out: Jurkat HPD1 PDL1 IC50
T1 construct: expressed in transfected cells; host or cells: Jurkat
Method in brief: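 In this imaging assay, cells in 10% FCS medium see compound for 2 h at 37 °C and then labeled ligand at 20 nM final for 1 h. Paraformaldehyde fixation, Hoechst 33342 staining and dPBS washes precede image capture.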

T1 sequence (Q15116 25-288): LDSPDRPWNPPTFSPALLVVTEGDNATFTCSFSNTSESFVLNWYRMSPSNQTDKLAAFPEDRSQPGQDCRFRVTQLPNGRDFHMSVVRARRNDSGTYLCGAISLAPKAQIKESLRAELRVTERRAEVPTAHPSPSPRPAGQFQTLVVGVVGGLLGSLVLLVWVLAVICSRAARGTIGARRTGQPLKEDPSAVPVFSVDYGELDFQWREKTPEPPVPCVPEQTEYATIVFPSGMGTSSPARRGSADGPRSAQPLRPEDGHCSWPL

IC50 [nM]	Compound
22.8	Cc1cccc(C[C@@H]2NC(=O)[C@H](CC(=O)O)NC(=O)[C@H](Cc3ccc(OCC(=O)O)cc3)NC(=O)[C@H](Cc3ccc(OCC(=O)O)cc3)NC(=O)CSC[C@@H](C(=O)N[C@@H](CN)C(=O)NCCCCCCCCCCC(=O)O)NC(=O)[C@H](C(C)O)NC(=O)[C@H](C(C)C)NC(=O)[C@H](CC3CCCCC3)NC(=O)[C@H](CCN)NC(=O)[C@@H](CC(C)C)NC(=O)[C@H](C)N(C)C(=O)[C@H](CCCNC(N)=O)NC(=O)[C@H](Cc3ccc(-c4ccccc4)cc3)NC(=O)[C@H](CC(C)C)NC2=O)c1 (stereo partly drawn) [Example 2334] ({CH2CO}-Y(Carboxymethyl)Y(Carboxymethyl)D[Phe(3-Me)]L[Bip][Cit][NMeA][dL][Dab][Cha]V[Thr(3ξ)]C[Dap][Aun]-OH; thioether N-14)
14.3	Cc1cccc(C[C@@H]2NC(=O)[C@H](CC(=O)O)NC(=O)[C@H](Cc3ccc(OCC(=O)O)cc3)NC(=O)[C@H](CCCNC(=N)N)NC(=O)CSC[C@@H](C(=O)N[C@@H](CCN)C(=O)NCCCCCCCCCCC(=O)O)NC(=O)[C@H](C(C)O)NC(=O)[C@H](C(C)C)NC(=O)[C@H](CC3CCCCC3)NC(=O)[C@H](CCN)NC(=O)[C@@H](CC(C)C)NC(=O)[C@H](C)N(C)C(=O)[C@H](Cc3ccc(OCC(=O)O)cc3)NC(=O)[C@H](Cc3ccc(-c4ccccc4)cc3)NC(=O)[C@H](CCC(=O)O)NC2=O)c1 (stereo partly drawn) [Example 2306] ({CH2CO}-RY(Carboxymethyl)D[Phe(3-Me)]E[Bip]Y(Carboxymethyl)[NMeA][dL][Dab][Cha]V[Thr(3ξ)]C[Dab][Aun]-OH; thioether N-14)
42.2	CC(C)C[C@H]1NC(=O)[C@H](C)N(C)C(=O)[C@H](CCCNC(N)=O)NC(=O)[C@H](Cc2ccc(-c3ccccc3)cc2)NC(=O)[C@H](Cc2ccc(O)cc2)NC(=O)[C@H](Cc2c[nH]c3ccccc23)NC(=O)[C@H](CC(=O)O)NC(=O)[C@H](Cc2ccc(OCC(=O)O)cc2)NC(=O)[C@H](CCCNC(=N)N)NC(=O)CSC[C@@H](C(=O)N[C@@H](CCN)C(=O)NCCCCCCCCCCC(=O)O)NC(=O)[C@H]([C@@H](C)O)NC(=O)[C@H](C(C)C)NC(=O)[C@H](CC2CCCCC2)NC(=O)[C@H](CCN)NC1=O [Example 1354] ({CH2CO}-RY(Carboxymethyl)DWY[Bip][Cit][NMeA][dL][Dab][Cha]VTC[Dab][Aun]-OH; thioether N-14)
174	CC(=O)NCCCC[C@@H]1NC(=O)[C@H](C(C)C)NC(=O)[C@H](CC2CCCCC2)NC(=O)[C@H](CCN)NC(=O)[C@@H](CC(C)C)NC(=O)[C@H](C)N(C)C(=O)[C@H](Cc2ccc(O)cc2)NC(=O)[C@H](Cc2ccc(-c3ccccc3)cc2)NC(=O)[C@H](C(C)C)NC(=O)[C@H](Cc2cccc(C)c2)NC(=O)[C@H](CC(=O)O)NC(=O)[C@H](Cc2ccc(OCC(=O)O)cc2)NC(=O)[C@H](Cc2ccncc2)NC(=O)CSC[C@@H](C(=O)N(C)CC(=O)NCCCCCCCCCCC(=O)O)NC1=O [Example 2276] ({CH2CO}-[4Pal]Y(Carboxymethyl)D[Phe(3-Me)]V[Bip]Y[NMeA][dL][Dab][Cha]VK(Ac)C[Sar][Aun]-OH; thioether N-14)
11.6	CC(C)C[C@@H]1NC(=O)[C@H](Cc2c[nH]c3ccccc23)NC(=O)[C@H](CC(=O)O)NC(=O)[C@H](Cc2ccc(OCC(=O)O)cc2)NC(=O)[C@H](CCCCNC(=N)N)NC(=O)CSC[C@@H](C(=O)NCC(=O)NCCOCCOCC(=O)N[C@@H](CCCN)C(=O)NCCCCCCCCCCCC(=O)O)NC(=O)[C@H](CO)NC(=O)[C@H](C(C)C)NC(=O)[C@H](CC2CCCCC2)NC(=O)[C@H](CCN)NC(=O)[C@@H](CC(C)C)NC(=O)[C@H](C)N(C)C(=O)[C@H](C(C)C)NC(=O)[C@H](Cc2ccc(-c3ccccc3)cc2)NC1=O [Example 2123] ({CH2CO}-[hArg]Y(Carboxymethyl)DWL[Bip]V[NMeA][dL][Dab][Cha]VSCG[AEEA][Orn][12Ado]-OH; thioether N-14)
12.5	Cc1cccc(C[C@@H]2NC(=O)[C@H](CC(=O)O)NC(=O)[C@H](Cc3ccc(OCC(=O)O)cc3)NC(=O)[C@H](Cc3ccc(OCC(=O)O)cc3)NC(=O)CSC[C@@H](C(=O)N[C@@H](CCN)C(=O)NCCCCCCCCCCC(=O)O)NC(=O)[C@H](CCCN)NC(=O)[C@H](C(C)C)NC(=O)[C@H](CC3CCCCC3)NC(=O)[C@H](CCN)NC(=O)[C@@H](CC(C)C)NC(=O)[C@H](C)N(C)C(=O)[C@H](Cc3ccc(O)cc3)NC(=O)[C@H](Cc3ccc(-c4ccccc4)cc3)NC(=O)[C@H](C(C)C)NC2=O)c1 [Example 1254] ({CH2CO}-Y(Carboxymethyl)Y(Carboxymethyl)D[Phe(3-Me)]V[Bip]Y[NMeA][dL][Dab][Cha]V[Orn]C[Dab][Aun]-OH; thioether N-14)
10.8	CC[C@H](C)[C@@H]1NC(=O)[C@H](Cc2ccc(-c3ccccc3)cc2)NC(=O)[C@H](CC(C)C)NC(=O)[C@H](Cc2c[nH]c3ccccc23)NC(=O)[C@H](CC(=O)O)NC(=O)[C@H](Cc2ccc(C(=O)O)cc2)NC(=O)[C@H](Cc2ccc(OCC(=O)O)cc2)NC(=O)CSC[C@@H](C(=O)N[C@@H](CCCCN)C(=O)NCCOCCOCC(=O)NCCCCCCCCCCC(=O)O)NC(=O)[C@H](CO)NC(=O)[C@H](C(C)C)NC(=O)[C@H](CC2CCCCC2)NC(=O)[C@H](CCN)NC(=O)[C@@H](CC(C)C)NC(=O)[C@H](C)N(C)C1=O [Example 1079] ({CH2CO}-Y(Carboxymethyl)[Phe(4-COOH)]DWL[Bip]I[NMeA][dL][Dab][Cha]VSCK[AEEA][Aun]-OH; thioether N-14)
74.8	Cc1cccc(C[C@@H]2NC(=O)[C@H](CC(=O)O)NC(=O)[C@H](Cc3ccc(OCC(=O)O)cc3)NC(=O)[C@H](CCCNC(=N)N)NC(=O)CSC[C@@H](C(=O)NCCOCCOCC(=O)NCCCCCCCCCCC(=O)O)NC(=O)[C@H](C(C)O)NC(=O)[C@H](C(C)C)NC(=O)[C@H](CC3CCCCC3)NC(=O)[C@H](CCN)NC(=O)[C@@H](CC(C)C)NC(=O)[C@H](C)N(C)C(=O)[C@H](Cc3ccc(OCC(=O)O)cc3)NC(=O)[C@H](Cc3ccc(-c4ccccc4)cc3)NC(=O)[C@H](Cc3ccc(OCC(=O)O)cc3)NC2=O)c1 (stereo partly drawn) [Example 2342] ({CH2CO}-RY(Carboxymethyl)D[Phe(3-Me)]Y(Carboxymethyl)[Bip]Y(Carboxymethyl)[NMeA][dL][Dab][Cha]V[Thr(3ξ)]C[AEEA][Aun]-OH; thioether N-14)
24.7	CC(C)C[C@H]1NC(=O)[C@H](C)N(C)C(=O)[C@H](CCCNC(N)=O)NC(=O)[C@H](Cc2ccc(-c3ccccc3)cc2)NC(=O)[C@H](Cc2ccc(C(=O)O)cc2)NC(=O)[C@H](Cc2cccc(C(F)(F)F)c2)NC(=O)[C@H](CC(=O)O)NC(=O)[C@H](Cc2ccc(OCC(=O)O)cc2)NC(=O)[C@H]([C@H](C)N)NC(=O)CSC[C@@H](C(=O)N[C@@H](CCN)C(=O)NCCOCCOCC(=O)N[C@@H](CCC(=O)NCCOCCOCC(=O)NCCCCCCCCCCCCC(=O)O)C(=O)O)NC(=O)[C@H](CO)NC(=O)[C@H](C(C)(C)O)NC(=O)[C@H](CC2CCCCC2)NC(=O)[C@H](CCN)NC1=O [Example 1205] ({CH2CO}-[Abu(3S-NH2)]Y(Carboxymethyl)D[Phe(3-CF3)][Phe(4-COOH)][Bip][Cit][NMeA][dL][Dab][Cha][Val(3-OH)]SC[Dab][AEEA][γGlu][AEEA]-{NH(CH2)12COOH}; thioether N-14)
48.5	Cc1cccc(C[C@@H]2NC(=O)[C@H](CC(=O)O)NC(=O)[C@H](Cc3ccc(C(=O)O)cc3)NC(=O)[C@H](Cc3ccc(OCC(=O)O)cc3)NC(=O)CSC[C@@H](C(=O)NCC(=O)N[C@@H](CCC(=O)NCCOCCOCC(=O)N[C@@H](CC(=O)O)C(=O)NCCCCCCCCCCC(=O)O)C(=O)O)NC(=O)[C@H](CO)NC(=O)[C@H](C(C)C)NC(=O)[C@H](CC(C)C)NC(=O)[C@H](CC(N)=O)NC(=O)[C@@H](CC(C)C)NC(=O)[C@H](C)N(C)C(=O)[C@H](C(C)C)NC(=O)[C@H](Cc3ccc(-c4ccccc4)cc3)NC(=O)[C@H](CC(C)C)NC2=O)c1 [Example 1014] ({CH2CO}-Y(Carboxymethyl)[Phe(4-COOH)]D[Phe(3-Me)]L[Bip]V[NMeA][dL]NLVSCG[γGlu][AEEA]D[Aun]-OH; thioether N-14)
181	CC(C)C[C@H]1NC(=O)[C@H](C)N(C)C(=O)[C@H](C(C)C)NC(=O)[C@H](Cc2ccc(-c3ccccc3)cc2)NC(=O)[C@H](C(C)C)NC(=O)[C@H](Cc2c[nH]c3ccccc23)NC(=O)[C@H](CC(=O)O)NC(=O)[C@H](Cc2ccc(C(=O)O)cc2)NC(=O)[C@H](Cc2ccncc2)NC(=O)CSC[C@@H](C(=O)N[C@@H](CCN)C(=O)NCCCCCCCCCCCCCCC(=O)O)NC(=O)[C@H](CO)NC(=O)[C@H](C(C)C)NC(=O)[C@H](CC2CCCCC2)NC(=O)[C@H](CCN)NC1=O [Example 2004] ({CH2CO}-[4Pal][Phe(4-COOH)]DWV[Bip]V[NMeA][dL][Dab][Cha]VSC[Dab]-{NH(CH2)14COOH}; thioether N-14)

same assay, conditions: PE-labeled PD-L1-Ig 20 nM final, Jurkat-hPD-1 cells; read-out: Jurkat HPD1 PDL1 IC50

IC50 [nM]	Compound
30	CC(C)C[C@@H]1NC(=O)[C@H](Cc2c[nH]c3ccccc23)NC(=O)[C@H](CC(=O)O)NC(=O)[C@H](Cc2ccc(OCC(=O)O)cc2)NC(=O)[C@H](Cc2ccc(OCC(=O)O)cc2)NC(=O)CSC[C@@H](C(=O)N[C@@H](CCN)C(=O)NCCOCCOCC(=O)NCCOCCOCC(=O)NCCCCCCCCCCC(=O)O)NC(=O)[C@H](CCC(=O)O)NC(=O)[C@H](C(C)(C)O)NC(=O)[C@H](CC2CCCCC2)NC(=O)[C@H](CCN)NC(=O)[C@@H](CC(C)C)NC(=O)[C@H](C)N(C)C(=O)[C@H](CCC(N)=O)NC(=O)[C@H](Cc2ccc(-c3ccccc3)cc2)NC1=O [Example 2517] ({CH2CO}-Y(Carboxymethyl)Y(Carboxymethyl)DWL[Bip]Q[NMeA][dL][Dab][Cha][Val(3-OH)]EC[Dab][AEEA][AEEA][Aun]-OH; thioether N-14)
